Measured values as given in ChEMBL document CHEMBL5331046, “Disulfiram and dithiocarbamate analogues demonstrate promising antischistosomal effects” (Eur J Med Chem, 2022).
Calls of active or inactive are those of the source. The calls are words filed in the database; no cut-off is given here.

Columns and labels:
Schistosoma mansoni [1] = assay: Antischistosomal activity against Schistosoma mansoni couples at >=50 uM measured upto 72 hrs by bright field microscopy; assay type: functional, organism-based
HepG2 [2] = assay: Cytotoxicity against human HepG2 cells assessed as reduction in cell vaibility at 100 uM by WST-1 assay; assay type: toxicity, cell-based; conditions: hepg2, 100 µM
Schistosoma mansoni [3] = assay: Antischistosomal activity against Schistosoma mansoni couples assessed as edematous swelling of gut at 25 uM measured upto 72 hrs by bright field microscopy; assay type: functional, organism-based
Schistosoma mansoni [4] = assay: Antischistosomal activity against Schistosoma mansoni couples at 100 uM measured upto 72 hrs by bright field microscopy; assay type: functional, organism-based
Schistosoma mansoni [5] = assay: Antischistosomal activity against Schistosoma mansoni couples assessed as decrease in parasite motility at 25 uM measured upto 72 hrs by bright field microscopy; assay type: functional; set-up: scale not given: the % may be the effect or the level left
Schistosoma mansoni [6] = assay: Antischistosomal activity against Schistosoma mansoni couples assessed as inhibition of eggs production at 10 uM measured upto 72 hrs by bright field microscopy; assay type: functional, organism-based
Schistosoma mansoni [7] = assay: Antischistosomal activity against Schistosoma mansoni couples assessed as reduction in pairing stability at 10 uM measured upto 72 hrs by bright field microscopy; assay type: functional, organism-based
LS174T [8] = assay: Cytotoxicity against human LS174T cells assessed as reduction in cell viability at 100 uM by WST-1 assay; assay type: toxicity, cell-based
HepG2 [9] = assay: Cytotoxicity against human HepG2 cells assessed as reduction in cell vaibility at 25 uM by WST-1 assay; assay type: toxicity, cell-based; conditions: hepg2, 25 µM
Schistosoma mansoni [10] = assay: Antischistosomal activity against Schistosoma mansoni couples assessed as decrease in parasite motility at 10 uM measured upto 72 hrs by bright field microscopy; assay type: functional, organism-based
Schistosoma mansoni [11] = assay: Antischistosomal activity against Schistosoma mansoni couples assessed as dead worms at 25 uM measured upto 72 hrs by bright field microscopy; assay type: functional
LS174T [12] = assay: Cytotoxicity against human LS174T cells assessed as reduction in cell vaibility at 25 uM by WST-1 assay; assay type: toxicity, cell-based
Schistosoma mansoni [13] = assay: Antischistosomal activity against Schistosoma mansoni couples assessed as decrease in parasite vitality at 10 uM measured upto 72 hrs by bright field microscopy; assay type: functional
Schistosoma mansoni [14] = assay: Antischistosomal activity against Schistosoma mansoni couples at 10 uM measured upto 72 hrs by bright field microscopy; assay type: functional, organism-based
Schistosoma mansoni [15] = assay: Antischistosomal activity against Schistosoma mansoni couples at 25 uM measured upto 72 hrs by bright field microscopy; assay type: functional, organism-based
Schistosoma mansoni [16] = assay: Antischistosomal activity against Schistosoma mansoni couples assessed as decrease in parasite motility at 100 uM measured upto 72 hrs by bright field microscopy; assay type: functional; set-up: scale not given: the % may be the effect or the level left
LS174T [17] = assay: Cytotoxicity against human LS174T cells assessed as reduction in cell vaibility upto 100 uM by WST-1 assay; assay type: toxicity, cell-based
Schistosoma mansoni [18] = assay: Antischistosomal activity against Schistosoma mansoni couples assessed as pairing instability at 50 uM measured upto 72 hrs by bright field microscopy; assay type: functional
HepG2 [19] = assay: Cytotoxicity against human HepG2 cells assessed as reduction in cell viability upto 100 uM by WST-1 assay; assay type: toxicity, cell-based; conditions: hepg2, 100 µM
Schistosoma mansoni [20] = assay: Antischistosomal activity against Schistosoma mansoni couples assessed as decrease in parasite motility at 50 uM measured upto 72 hrs by bright field microscopy; assay type: functional
Schistosoma mansoni [21] = assay: Antischistosomal activity against Schistosoma mansoni couples assessed as tegument damage upto 100 uM measured upto 72 hrs by bright field microscopy; assay type: functional, organism-based
Schistosoma mansoni [22] = assay: Antischistosomal activity against Schistosoma mansoni couples assessed as eggs deformation at 100 uM measured upto 72 hrs by bright field microscopy; assay type: functional
Schistosoma mansoni [23] = assay: Antischistosomal activity against Schistosoma mansoni couples assessed as reduction in pairing stability at 100 uM measured upto 72 hrs by bright field microscopy; assay type: functional
Schistosoma mansoni [24] = assay: Antischistosomal activity against Schistosoma mansoni couples assessed as induction of weak phenotypes at 25 uM measured upto 72 hrs by bright field microscopy; assay type: functional, organism-based
Schistosoma mansoni [25] = assay: Antischistosomal activity against Schistosoma mansoni couples assessed as reduction in pairing stability at 50 uM measured upto 72 hrs by bright field microscopy; assay type: functional, organism-based
Schistosoma mansoni [26] = assay: Antischistosomal activity against Schistosoma mansoni couples assessed as gut dilations at 50 uM measured upto 72 hrs by bright field microscopy; assay type: functional, organism-based
Schistosoma mansoni [27] = assay: Antischistosomal activity against Schistosoma mansoni couples assessed as inhibition of eggs production at 50 uM measured upto 72 hrs by bright field microscopy; assay type: functional, organism-based
Schistosoma mansoni [28] = assay: Antischistosomal activity against Schistosoma mansoni couples assessed as tegument damage at 50 uM measured upto 72 hrs by bright field microscopy; assay type: functional, organism-based
Schistosoma mansoni [29] = assay: Antischistosomal activity against Schistosoma mansoni couples assessed as intestinal dilations and tegument damage at 50 uM measured upto 72 hrs by bright field microscopy; assay type: functional, organism-based
Schistosoma mansoni [30] = assay: Antischistosomal activity against Schistosoma mansoni couples assessed as detachment of worms from culture dish at 100 uM measured upto 72 hrs by bright field microscopy; assay type: functional, organism-based
Schistosoma mansoni [31] = assay: Antischistosomal activity against Schistosoma mansoni couples assessed as gut dilations at 100 uM measured upto 72 hrs by bright field microscopy; assay type: functional, organism-based
Schistosoma mansoni [32] = assay: Antischistosomal activity against Schistosoma mansoni couples assessed as decrease in parasite vitality at 15 uM measured upto 72 hrs by bright field microscopy; assay type: functional; set-up: scale not given: the % may be the effect or the level left
Schistosoma mansoni [33] = assay: Antischistosomal activity against Schistosoma mansoni couples assessed as reduction in parasite motility at <=10 uM measured upto 72 hrs by bright field microscopy; assay type: functional; set-up: scale not given: the % may be the effect or the level left; conditions: up to 10 µM
Schistosoma mansoni [34] = assay: Antischistosomal activity against Schistosoma mansoni couples assessed as decrease in pairing stability at 15 uM measured upto 72 hrs by bright field microscopy; assay type: functional; set-up: scale not given: the % may be the effect or the level left
Schistosoma mansoni [35] = assay: Antischistosomal activity against Schistosoma mansoni couples assessed as inhibition of eggs production at 15 uM measured upto 72 hrs by bright field microscopy; assay type: functional; set-up: scale not given: the % may be the effect or the level left
Schistosoma mansoni [36] = assay: Antischistosomal activity against Schistosoma mansoni couples assessed as tegument damage at 10 uM measured upto 72 hrs by bright field microscopy; assay type: functional, organism-based
Schistosoma mansoni [37] = assay: Antischistosomal activity against Schistosoma mansoni couples assessed as decrease in parasite motility at 15 uM measured upto 72 hrs by bright field microscopy; assay type: functional; set-up: scale not given: the % may be the effect or the level left
Schistosoma mansoni [38] = assay: Antischistosomal activity against Schistosoma mansoni couples assessed as loss of internal structures at <=10 uM measured upto 72 hrs by bright field microscopy; assay type: functional, organism-based
Schistosoma mansoni [39] = assay: Antischistosomal activity against Schistosoma mansoni couples assessed as loss of internal structures at 10 uM measured upto 72 hrs by bright field microscopy; assay type: functional, organism-based
Schistosoma mansoni [40] = assay: Antischistosomal activity against Schistosoma mansoni couples assessed as tegument damage at <=10 uM measured upto 72 hrs by bright field microscopy; assay type: functional, organism-based
Schistosoma mansoni [41] = assay: Antischistosomal activity against Schistosoma mansoni couples assessed as gut dilatations at <=10 uM measured upto 72 hrs by bright field microscopy; assay type: functional, organism-based
Schistosoma mansoni [42] = assay: Antischistosomal activity against Schistosoma mansoni couples assessed as gut dilatations at 10 uM measured upto 72 hrs by bright field microscopy; assay type: functional, organism-based
Schistosoma mansoni [43] = assay: Antischistosomal activity against Schistosoma mansoni couples assessed as induction of phenotypes at 10 uM measured upto 72 hrs by bright field microscopy; assay type: functional, organism-based

CN1CCN(C(=S)SCc2ccccc2)CC1
Activity (Schistosoma mansoni [1]): Active

C[C@H](N)C(=O)N1CCN(C(=S)SCc2ccc([N+](=O)[O-])cc2)CC1.Cl
Activity (HepG2 [2]): Toxic | Activity (Schistosoma mansoni [3]): Active | Activity (Schistosoma mansoni [4]): Active | Activity (Schistosoma mansoni [5]): 65% | Activity (Schistosoma mansoni [6]): Active | Activity (Schistosoma mansoni [7]): Active | Activity (LS174T [8]): Toxic | Activity (HepG2 [9]): Toxic | Activity (Schistosoma mansoni [10]): inactive | Activity (Schistosoma mansoni [11]): <=25% | Activity (LS174T [12]): Toxic | Activity (Schistosoma mansoni [13]): Active

CC(C)NC(=O)CN1CCN(C(=S)SCc2ccc([N+](=O)[O-])cc2)CC1
Activity (Schistosoma mansoni [4]): Active | Activity (Schistosoma mansoni [14]): inactive | Activity (Schistosoma mansoni [15]): Active

CCN(CC)C(=S)SCCC1SCCCS1
Activity (Schistosoma mansoni [16]): <40% | Activity (LS174T [17]): Non-Toxic | Activity (Schistosoma mansoni [18]): 0% | Activity (HepG2 [19]): Non-Toxic | Activity (Schistosoma mansoni [20]): Active | Activity (Schistosoma mansoni [21]): Active

CCN(CC)C(=S)SCCC1OCCO1
Activity (Schistosoma mansoni [16]): inactive | Activity (Schistosoma mansoni [18]): inactive

CCN1CCN(C(=S)SCc2ccccc2)CC1
Activity (Schistosoma mansoni [1]): Active

CCN(CC)C(=S)SCc1ccc(C)cc1
Activity (LS174T [17]): Non-Toxic | Activity (HepG2 [19]): Non-Toxic

CN(C)C(=S)SCc1ccccc1
Activity (Schistosoma mansoni [22]): Active | Activity (Schistosoma mansoni [23]): Active

CSCC[C@H](N)C(=O)N1CCN(C(=S)SCc2ccc([N+](=O)[O-])cc2)CC1.Cl
Activity (Schistosoma mansoni [5]): 60% | Activity (Schistosoma mansoni [6]): Active | Activity (Schistosoma mansoni [7]): Active | Activity (HepG2 [9]): Toxic | Activity (Schistosoma mansoni [10]): inactive | Activity (Schistosoma mansoni [24]): Active | Activity (LS174T [12]): Toxic | Activity (Schistosoma mansoni [13]): Active

CCN(CC)C(=S)SCc1ccc(C#N)cc1
Activity (Schistosoma mansoni [5]): Active | Activity (Schistosoma mansoni [25]): Active | Activity (Schistosoma mansoni [26]): Active | Activity (Schistosoma mansoni [27]): Active | Activity (Schistosoma mansoni [28]): Active | Activity (Schistosoma mansoni [29]): Active

S=C(SCc1ccccc1)N1CCSCC1
Activity (HepG2 [2]): Non-Toxic | Activity (Schistosoma mansoni [16]): 45% | Activity (Schistosoma mansoni [30]): Active | Activity (Schistosoma mansoni [26]): Active | Activity (LS174T [8]): Non-Toxic | Activity (Schistosoma mansoni [20]): ~45% | Activity (Schistosoma mansoni [31]): Active

CCCN1CCN(C(=S)SCc2ccccc2)CC1
Activity (Schistosoma mansoni [1]): Active

O=[N+]([O-])c1ccc(CSC(=S)N2CCN(S(=O)(=O)c3ccccc3)CC2)cc1
Activity (HepG2 [2]): Toxic | Activity (Schistosoma mansoni [32]): 90% | Activity (Schistosoma mansoni [33]): 50% | Activity (Schistosoma mansoni [34]): 20% | Activity (Schistosoma mansoni [35]): 40% | Activity (Schistosoma mansoni [36]): Active | Activity (Schistosoma mansoni [37]): 50% | Activity (LS174T [8]): Toxic | Activity (Schistosoma mansoni [38]): inactive | Activity (Schistosoma mansoni [39]): Active | Activity (Schistosoma mansoni [10]): Active | Activity (Schistosoma mansoni [40]): inactive | Activity (Schistosoma mansoni [41]): inactive | Activity (Schistosoma mansoni [42]): Active | Activity (Schistosoma mansoni [43]): Active
